Reference: patent publication US20080293699A1, “Inhibitors of thapsigargin-induced cell death” (priority 2007, published 2008)
“Also recorded” adds a separate entry of the source.

What was measured:
[1] = test system: HeLa human cervical cancer; assay: Thapsigargin-induced death of HeLa cells, ATP content assay; type: cell-based
Description: In addition to CSM14.1 cells, when tested at 25 μM, Compound 5962123 protected by >50% against thapsigargin-induced death of several tumor cell lines (HeLa human cervical cancer, SW1 melanoma cell, PPC1, human prostate cancer), mouse neural stem cell C17.2 (both differentiated [neuronal phenotype] and non-differentiated [stem cell phenotype]) as determined by ATP content assay, and primary rat cortical neurons as determined by microscopy assay measuring the percentage of NeuN-immunopositive cells with either normal or apoptotic nuclear morphology (Hoechst dye staining).
For PC12, cells were stimulated with 20 ng/ml NGF for five days; for C17.2, cells were stimulated with serum reduction, and 1% N2 incubation for three days; for CSM14.1, cells were cultured at 39° C. for 5-7 days.

[2] = test system: CSM14.1 cells; assay: Pathway selectivity: cell death induced by VP16, TNF plus cycloheximide or staurosporine in CSM14.1 cells; type: cell-based, rat; details: 25 μM, ATP content where stated
Description: The selectivity of compounds with respect to suppression of cell death induced by ER stress was determined by treating undifferentiated CSM14.1 cells with a variety of agents that induce apoptosis via the ER stress pathway (thapsigargin, tunicamycin), the mitochondrial pathway (VP16) or the death receptor pathway (TNF+cycloheximide [CHX]). Of the 26 hit compounds tested, 19 reduced cell death induced by thapsigargin and tunicamycin but not VP16 or TNF/CHX.
For the experiments shown in FIG. 18, undifferentiated CSM 14.1 cells were plated at 3,000 cells per well in 96-well plates (for the ATP assay) or at 1×10^4 cells per well in 24-well plates (for flow cytometry). The next day, cells were treated with DMSO (0.5%) or hit compounds 25 μM of a compound with 0.5% DMSO final concentration) for two hours, followed by treatment with various cell death-inducing reagents, including 15 μM Thapsigargin (TG) for 24 hrs, 10 μg/mL tunicamycin (TU) for 72 hrs, 2.5 μM staurosporine (STS) for 24 hrs, 50 μM VP16 for 48 hrs, or 30 ng/mL TNF plus 10 μg/mL cyclohexamide (CHX) for 24 hrs. Cellular ATP content was measured for staurosporine samples and TNF/CHX samples, normalizing data relative to cells treated with DMSO alone (the control) and presenting as a percentage of control. For measuring cell death resulting from treatment with tunicamycin and VP16, flow cytometry was used. All assays were performed in triplicate (mean ±SD).

[3] = biological target: T1, ASK1 (Homo sapiens, UniProt Q99683); assay: ASK1 autophosphorylation in vitro kinase assay; type: biochemical; details: up to 50 μM, listed as CID-2878746
T1 construct: expressed in transfected cells; host or cells: HEK293T
T1 sequence (Q99683 1-1374): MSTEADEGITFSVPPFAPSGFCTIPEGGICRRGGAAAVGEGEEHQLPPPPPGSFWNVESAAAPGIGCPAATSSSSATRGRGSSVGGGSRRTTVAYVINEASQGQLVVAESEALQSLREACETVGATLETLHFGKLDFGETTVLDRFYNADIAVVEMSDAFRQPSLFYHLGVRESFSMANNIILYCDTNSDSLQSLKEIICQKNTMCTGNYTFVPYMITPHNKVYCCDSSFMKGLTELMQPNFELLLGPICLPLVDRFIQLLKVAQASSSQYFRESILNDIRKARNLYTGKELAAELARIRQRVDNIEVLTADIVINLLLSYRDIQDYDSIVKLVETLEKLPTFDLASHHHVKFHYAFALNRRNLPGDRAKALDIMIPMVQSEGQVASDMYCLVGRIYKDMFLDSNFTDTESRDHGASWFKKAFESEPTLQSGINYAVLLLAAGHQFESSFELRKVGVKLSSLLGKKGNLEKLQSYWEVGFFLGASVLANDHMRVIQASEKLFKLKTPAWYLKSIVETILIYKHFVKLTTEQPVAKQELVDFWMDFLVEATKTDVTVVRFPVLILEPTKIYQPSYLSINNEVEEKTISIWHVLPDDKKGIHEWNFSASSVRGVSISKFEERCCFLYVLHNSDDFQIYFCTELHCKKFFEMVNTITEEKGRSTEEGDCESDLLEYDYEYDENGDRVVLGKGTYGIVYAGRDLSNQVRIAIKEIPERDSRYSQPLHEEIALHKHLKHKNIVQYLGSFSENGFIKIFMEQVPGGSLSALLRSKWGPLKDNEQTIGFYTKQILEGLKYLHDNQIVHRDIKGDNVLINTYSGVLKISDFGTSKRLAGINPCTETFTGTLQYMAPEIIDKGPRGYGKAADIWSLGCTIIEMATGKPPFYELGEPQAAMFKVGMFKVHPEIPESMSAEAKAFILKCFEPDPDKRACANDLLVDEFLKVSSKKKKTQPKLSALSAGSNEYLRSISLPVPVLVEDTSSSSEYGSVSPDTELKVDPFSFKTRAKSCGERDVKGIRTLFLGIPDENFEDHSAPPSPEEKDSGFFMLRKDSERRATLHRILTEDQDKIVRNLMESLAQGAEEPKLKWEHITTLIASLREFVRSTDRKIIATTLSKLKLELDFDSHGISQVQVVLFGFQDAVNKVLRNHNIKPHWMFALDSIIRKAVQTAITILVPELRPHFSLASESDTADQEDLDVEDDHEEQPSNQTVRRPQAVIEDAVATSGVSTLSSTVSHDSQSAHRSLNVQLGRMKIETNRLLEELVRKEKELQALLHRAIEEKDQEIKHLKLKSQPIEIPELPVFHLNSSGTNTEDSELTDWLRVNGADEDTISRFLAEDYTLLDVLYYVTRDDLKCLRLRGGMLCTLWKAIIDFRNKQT
Description: Suppression of thapsigargin-induced phosphorylation of p38MAPK was also measured by a quantitative ELISA-methods, with IC50 for p38MAPK phosphorylation estimated at <5 μM. In contrast, thapsigargin-induced expression of CHOP, expression of ATF4, proteolytic processing of ATF6, phosphorylation of eIF2a (Ser 51), auto-phosphorylation of Ire1a or auto-phosphorylation of ASK1 were not inhibited directly by CID-2878746 at concentrations up to 50 μM tested by in vitro kinase assay using p32-γ-ATP substrate. […] Thapsigargin-induced reductions in phosphorylation of ASK1 at the serine 967 site in ASK1 transfected 293T cells are inhibited by compound 5962123 at concentrations of 50-100 μM, as determined by immunoblotting using anti-phospho-specific (ser 967) antibody, but thapsigargin-induced changes in phosphorylation of ASK1 at ser 83 and thr 845 are not modulated by compound 5962123 at concentrations as high as 100 μM in ASK1-transfected HEK293T cells.

`CCN(CC)c1ccc(C2Nc3ccccc3NC3=C2C(=O)CC(c2ccccc2)C3)cc1` (stereo not shown) [Compound 5962123, 6-(4-diethylaminophenyl)-9-phenyl-5,6,8,9,10,11-hexahydrobenzo[c][1,5]benzodiazepin-7-one] was tested. Which “Protection against thapsigargin-induced death, HeLa” value ([1]; 25 μM, ATP content assay) did it give?
Its value is over 50%.

And the “Cytoprotective activity in thapsigargin-treated HeLa” value ([1]; ATP content assay)?
Its value is “demonstrated”.

What about the “Cytoprotective activity, HeLa (Result)” value ([1]; thapsigargin 15 μM, ATP content, compound ≦25 μM) of the same compound?
Its value is “+ (+indicates >50% rescue of cell viability relative to untreated cells not exposed to thapsigargin at compound concentration of ≦25 μM)”.

What about the “Inhibition of cell death induced by TNF-α plus cycloheximide” value [2] of the same compound?
The value was “does not inhibit; also recorded: not active”.

What about the “Inhibition of cell death induced by VP-16” value [2] of the same compound?
Its value is “does not inhibit; also recorded: not active”.

What about the “Inhibition of cell death induced by staurosporine” value [2] of the same compound?
Its value is “does not inhibit; also recorded: not active”.

What about the “ASK1 autophosphorylation” value [3] of the same compound?
The value was “not inhibited”.
